Read-outs that look alike come from different tables or passages of the source.
Legend:
[1] = target: T1, binding of IgE to mast cells (cellular receptor) (Rattus norvegicus, UniProt P12371); experiment: Binding of IgE to mast cells (125I-labelled rat IgE, mixed peritoneal cells)
T1 construct: endogenous in cells; host or cells: mixed peritoneal cells (containing mast cells)
T1 sequence (P12371 24-245): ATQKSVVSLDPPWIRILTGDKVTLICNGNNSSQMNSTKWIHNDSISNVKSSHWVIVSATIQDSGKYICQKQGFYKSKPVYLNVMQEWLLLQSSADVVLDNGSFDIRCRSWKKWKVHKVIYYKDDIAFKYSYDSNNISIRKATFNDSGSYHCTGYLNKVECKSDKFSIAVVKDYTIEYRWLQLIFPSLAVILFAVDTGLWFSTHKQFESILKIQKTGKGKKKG
T1 sequence (P13386 1-243 partner): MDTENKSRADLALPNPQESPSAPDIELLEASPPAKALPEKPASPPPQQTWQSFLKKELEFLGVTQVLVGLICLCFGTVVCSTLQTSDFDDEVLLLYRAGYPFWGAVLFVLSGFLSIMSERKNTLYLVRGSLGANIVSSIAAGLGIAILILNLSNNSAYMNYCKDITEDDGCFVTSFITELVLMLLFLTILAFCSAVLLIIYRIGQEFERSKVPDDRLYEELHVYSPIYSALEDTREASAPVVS
T1 sequence (P20411 19-86 partner): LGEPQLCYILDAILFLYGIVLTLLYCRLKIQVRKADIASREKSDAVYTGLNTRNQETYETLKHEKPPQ
Description: The test used to determine this activity was the method of S. M. Coutts et al. (Journal of Pharm. Sci., 68:353 (1979)). Briefly described, the method is as follows:
IgE, isolated from the ascitic fluid of a transplantable rat IgE immunocytoma, was labeled with iodine-125 under mild conditions employing the Bolton-Hunter reagent. The antibody was incubated with mixed peritoneal cells at 37° C., and the cell-bound IgE was separated from unbound label by sedimentation through an 8% sucrose-polymer solution in microsediment tubes. Conditions for the interaction of 3nM IgE with 3×10^5 mast cells in 150 μl were: incubation time, 2 hrs; pH, 6.5-7.0; and ionic strength, equivalent to 150 mM NaCl. Mixed peritoneal cells bind IgE with an affinity equal to that of purified mast cells.

human basophils = experiment: Inhibition of histamine release from human basophils; format: cell-based; conditions: 5 minutes preincubation before anti-human IgE challenge; read-out: calculated concentration at which 50% of anti-IgE-induced histamine release was inhibited
Description: 1H-benz(f)azepine-2,5-dione was also tested by a method which measures inhibition of histamine release from human basophils. The basophil is a circulating granulocyte that contains preformed mediators of anaphylaxis. These mediators are secreted after immunological stimulation of the IgE-Fc receptor system. The human basophil has thus been employed as a model cell system for asthma and allergy. The effect of the compound upon anti-IgE-medicated secretion of histamine from human basophils prepared from venous blood was carried out according to Siraganian, R. and Brodsky, M. J., Automated Histamine Analysis for in vitro testing, J. Allergy Clin. Immunol. 57:525-540 (1976). The summary of the method follows:
A fraction containing basophils was isolated by allowing freshly drawn human blood to sediment in the presence of dextran, saline and ethylenediamine tetraacetate. […] Both the histamine secreted after the challenge and that remaining in the cells were determined by an automated fluorometric assay. The influence of 1H-benz(f)azepine-2,5-dione on anti-IgE-induced release of histamine (AIR) was assessed by preincubation of the cells with the test compound for 5 minutes before immunological challenge. […] The results were expressed as the percent inhibition of AIR or as I50 value.

guinea pig lung slices = experiment: Inhibition of histamine release from guinea pig lung slices; format: cell-based; conditions: Cavia porcellus; passively sensitized lung slices, 5 minutes preincubation; read-out: concentration at which 50% of antigen-induced histamine release was inhibited (I50)
From the text: 1H-benz(f)azepine-2,5-dione was also found to inhibit histamine-release from guinea pig lung slices over a wide concentration range. Immunologically mediated secretion of histamine from guinea pig lung slices is mediated through the IgG1 class of antibodies, as opposed to the IgE-class of antibodies which control secretion from rat mast cells. The affect of the compound of the present invention on antigen-induced release of histamine from passively sensitized guinea pig lung slices was determined according to the procedure of Khandwala et al., Int. Archs. Allergy Appl. Immunol. 59:34-44(1979). A brief description of the method follows:
Guinea pig lung slices were passively sensitized in vitro with guinea pig anti-ovalbumin serum. […] Both the histamine released into the incubation media and the residual histamine extracted from the lung slices were measured fluorometrically. Both spontaneous and antigen-induced histamine releases were expressed as % of total extractable histamine in the lung slices. Net antigen-induced histamine release (AIR) was obtained by subtracting the spontaneous release from that in the presence of the antigen. The effect of the test compound on both SR and AIR was determined following 5 minutes preincubation of sensitized lung slices with the test compound. The concentration of the test compound required for 50% inhibition of AIR (I50) was determined.

[2] = test system: rat peritoneal mast cells; experiment: Inhibition of histamine release from rat mast cells; format: cell-based; conditions: for IC50: Rattus norvegicus, Mast cell, read-out: I50 of antigen-induced secretion of histamine
Description: The compound of the present invention was also tested for inhibition of histamine release from rat mast cells by the method of Khandwala et al., Int. Archs Allergy appl. Immun. 69:159-168 (1982). Rat peritoneal mast cells contain receptors for IgE antibodies as well as granules which contain preformed mediators of anaphylaxis. Immunologically stimulated secretion of histamine from these cells has long been used as a model for testing antiallergic drugs. The standard asthma prophylactic drug disodium cromoglycate is a potent inhibitor in this model. A brief summary of the method is as follows:
Freshly harvested rat peritoneal mast cells were passively sensitized in vitro with rat anti-ovalbumin serum. Spontaneous histamine release or SR (in the absence of antigen) and anaphylactically-induced histamine release or AIR (in the presence of antigen) were measured after 15 minutes of incubation. Both the histamine released into the incubation medium and the residual histamine extracted from rat mast cells were measured fluorometrically.

[3] = 0 h, compound added simultaneously (at 0 minutes) with antigen
[4] = cells and drug preincubated for 5 minutes before adding antigen

SMILES	IC50 ([1]; 3 nM IgE, 3×10^5 mast cells, 2 hrs, 37° C., read-out: concentration at which 50% inhibition of IgE binding was observed (I50)) [µM]	inhibition at 30 µM ([1]; 30 μM, average of two experiments) [%]	apparent affinity constant KA of IgE for its cellular receptor ([1]; in presence of 30 μM test compound, control KA 4.4×10^8 M^-1, Scatchard analysis) [M⁻¹]	IC50 (human basophils) [µM]	IC50 (guinea pig lung slices) [µM]	IC50 [2, 3] [µM]	IC50 [2, 4] [µM]	I50 of antigen-induced secretion of histamine [2, 4]
O=c1ccc(=O)c2ccccc2[nH]1 [1H-benz(f)azepine-2,5-dione, 1H-Benz(f)azepine-2,5-dione]	12	70	9.4e+07	2	20	1.8	5	–
O=C(O)c1cc(=O)c2c(OCC(O)COc3cccc4oc(C(=O)O)cc(=O)c34)cccc2o1 [disodium cromoglycate, reference compound]	–	–	–	–	–	3	–	inactive

Reference: US4477446A, “1-Benzazepines and their pharmaceutical uses” (USV Pharmaceutical Corporation, priority 1983, dated 1984)
